{"source": "patent US20210186982A1", "about": "“METHODS AND COMPOSITIONS FOR TREATING MELANOMA” (UNIVERSITE NICE SOPHIA ANTIPOLIS, priority 2017, published 2021)", "key": {"[1]": {"test_system": "1205Iu", "test": "MTS conversion assay, melanoma cell proliferation", "assay_type": "cell-based, human", "experimental": "(§1) Cell proliferation was measured by a MTS conversion assay using the CellTiter 96® Aqueous Non-Radioactive Cell Proliferation kit (Promega, Madison Wis.) according to the manufacturer instructions. Cells were seeded in 96-well plates (5×10^4 cells/well) and treated with different reagents for the indicated times and incubated at 37° C. with MTS reagent. The optical density of each sample at 490 nm was determined with a Multiskan FC plate reader (Thermo Fisher Scientific, Waltham, Mass. USA)."}, "[2]": {"test_system": "m229R", "test": "MTS conversion assay, melanoma cell proliferation", "assay_type": "cell-based, human", "experimental": "as §1"}, "[3]": {"test_system": "451IuR", "test": "MTS conversion assay, melanoma cell proliferation", "assay_type": "cell-based, human", "experimental": "as §1"}, "[4]": {"test_system": "501Mel", "test": "MTS conversion assay, melanoma cell proliferation", "assay_type": "cell-based, human", "experimental": "as §1"}, "[5]": {"test_system": "A375", "test": "MTS conversion assay, melanoma cell proliferation", "assay_type": "cell-based, human", "experimental": "as §1"}, "[6]": {"test": "Body weight during xenograft study", "assay_type": "in vivo", "conditions": "10 mgkg-1 i.p. every 3 days; nude mice; course of the study", "experimental": "All mouse experiments were carried out in accordance with the Institutional Animal Care and the local ethics committee. For human melanoma xenografts, 5-week-old female athymic (nu/nu) mice (Harlan) were subcutaneously injected with 1×106 451Lu-R BRAF inhibitor resistant melanoma cells engineered to express a luciferase reporter (451Lu-R Luc+ cells) in 100 μl of PBS. After 3 days, mice were injected every 3 days intraperitoneally with vehicle or 10 mgkg-1 b-AP15 in 90/1/9 mix of Labrafil/Tween 80/DMA. At the indicated time, mice were anesthetized and injected intraperitoneally with 50 mgkg-1 D-luciferin (Perkin Elmer) in PBS. Images were acquired using a Photon Imager (Biospace Lab) system and data analysed with the M3Vision software (Biospace Lab). Tumor growth was monitored and quantified using BLI. The total numbers of photons per second per steradian per square centimeter were recorded. For BLI plots, photon flux was calculated for each mouse by using a rectangular region of interest encompassing the thorax of the mouse in a prone position."}, "[7]": {"test_system": "melanoma cells", "test": "Cytotoxic effect, rounding of cells", "assay_type": "cell-based, human"}, "[8]": {"test_system": "Pt#1 patient cells", "test": "MTS conversion assay, patient melanoma cell proliferation", "assay_type": "cell-based", "conditions": "Homo sapiens; Patient cells Pt#1; MET; BRAF*; resistance none; 48 h MTS; read-out: b-AP15 IC50", "experimental": "as §1"}, "[9]": {"test_system": "A375", "test": "Real-time imaging growth curve (IncuCyte Zoom)", "assay_type": "cell-based, human", "conditions": "2 μM; 3 days; compared with bortezomib and VLX1570", "experimental": "FIG. 8. USP14 inhibition induces growth inhibition and cytotoxicity on melanoma cell lines. (A) Growth curve of A375 treated with 2 μM b-AP15, 2 μM VLX1570 or […] bortezomib (BTZ). Data were acquired in triplicate during 3 days using an IncuCyte Zoom. (B) and (C) Cytotoxic effects of USP14 inhibition on melanoma cells. A375 and Me1501 cells were treated with the indicated doses of b-AP15 or VLX1570, and stained with cytotox green reagent (100 nM). Cytotoxicity was monitored in triplicate for 72 h with an IncuCyte imaging system."}, "[10]": {"target": "T1, USP14 (Homo sapiens, UniProt P54578)", "T1 construct": "endogenous in cells; host or cells: A375 (also 1205Lu, 501Mel, SKMel28, 451Lu) melanoma cells; cell lysates", "T1 sequence (P54578 whole entry)": "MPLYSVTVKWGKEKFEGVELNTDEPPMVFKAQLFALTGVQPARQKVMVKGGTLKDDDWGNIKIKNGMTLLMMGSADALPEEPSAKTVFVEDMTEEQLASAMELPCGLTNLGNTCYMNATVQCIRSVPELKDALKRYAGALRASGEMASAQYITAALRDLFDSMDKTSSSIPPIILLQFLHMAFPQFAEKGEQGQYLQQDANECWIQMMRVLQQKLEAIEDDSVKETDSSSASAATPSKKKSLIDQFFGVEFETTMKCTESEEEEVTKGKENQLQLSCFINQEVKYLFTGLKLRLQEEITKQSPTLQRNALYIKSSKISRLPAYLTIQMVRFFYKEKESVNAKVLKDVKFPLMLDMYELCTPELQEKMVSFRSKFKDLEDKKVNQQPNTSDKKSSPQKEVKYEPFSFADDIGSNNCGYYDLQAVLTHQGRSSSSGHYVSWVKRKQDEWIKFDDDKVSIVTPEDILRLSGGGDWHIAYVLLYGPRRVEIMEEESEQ", "test": "DUB trap assay (HA-Ub-VS probe, anti-USP14 immunoblot)", "assay_type": "cell-based", "experimental": "Cells were harvested, washed with PBS and pellets were dried then freezed (−80° C.) and subsequently lysed in ice-cold buffer containing 50 mM Tris (pH 7.4), 5 mM MgCl2, 250 mM sucrose, 1 mM DTT, 2 mM ATP, and 1 mM PMSF and mild sonication. Lysates were cleared by centrifugation, and 20 μg of protein extracts were incubated for 25 min at 37° C. with 2 μM HA-Ub-VS (Boston Biochem, Cambridge, Mass.). After boiling in reducing sample buffer, labelled cell lysates were subjected to immunoblot analysis as described above using the indicated antibodies."}, "[11]": {"test_system": "4511u and 4511uR cells", "test": "Colony formation assay", "assay_type": "cell-based, human", "experimental": "(§2) Alternatively, cell growth was assessed by crystal violet staining on cells seeded in 24-well plates for the indicated time. After treatment, cells were fixed in PFA 3% during 20 min, washed with PBS 3 times and stained with crystal violet 0.4% in ethanol 20% for 30 min."}, "[12]": {"test_system": "A375 cells", "test": "Cell cycle / sub-G1 analysis by flow cytometry (PI)", "assay_type": "cell-based, human", "conditions": "24 h", "experimental": "(§3) Cell cycle profiles and sub-G1 analysis were performed by flow cytometry analysis of propidium iodide (PI)-stained cells. Briefly, following permeabilization in icecold ethanol 70%, cells were stained with PI 40 μg/ml in PBS supplemented with RNAse A 100 μg/ml before analysis using a BD FACSCanto cytometer."}, "[13]": {"test_system": "12051u cells", "test": "Cell cycle / sub-G1 analysis by flow cytometry (PI)", "assay_type": "cell-based, human", "conditions": "24 h", "experimental": "as §3"}, "[14]": {"test_system": "K48-linked poly-ubiquitinated proteins", "test": "Immunoblot analysis of poly-ubiquitinated proteins in A375 cells", "assay_type": "cell-based, human", "experimental": "(§4) Melanoma cells were harvested as described before 6. Cells were lysed at 4° C. in RIPA buffer (Millipore) supplemented with Pierce™ Protease and Phosphatase Inhibitor Mini Tablets, and briefly sonicated. Cell lysates were cleared at 16,000 xg for 15 min at 4° C. Whole cell lysates were subjected to SDS-PAGE and immunoblot analysis as previously described 6."}, "[15]": {"test_system": "12051u and A375 cells", "test": "Immunoblot analysis of proliferation and apoptosis proteins", "assay_type": "cell-based, human", "experimental": "as §4"}, "[16]": {"test_system": "Me1501 and A375 cells", "test": "Colony formation", "assay_type": "cell-based, human", "conditions": "compared to untreated cells", "experimental": "as §2"}, "[17]": {"test_system": "A375 cells", "test": "ROS production (CM-H2DCFDA, flow cytometry)", "assay_type": "cell-based, human", "conditions": "2 μM b-AP15 for 30 min", "experimental": "ROS levels were measured using the redox-sensitive dye CM-H2DCFDA (Thermo Fischer Scientific). After treatment, cells were stained with 10 μM CM-H2DCFDA in PBS for 30 min at 37° C. Cells were washed with PBS and resuspended in PBS 5 mM EDTA/1% BSA. ROS production was analysed using a MACSQuant® Analyzer 10 cytometer (Miltenyi Biotech)."}, "[18]": {"test": "Annexin-V-FITC/7-AAD flow cytometry, cell viability", "assay_type": "cell-based", "conditions": "human, A375 cells; solvent 87%", "experimental": "Cell death was evaluated by flow cytometry following staining with Annexin-V-FITC and 7-AAD (eBiosciences) as previously described 24."}, "[19]": {"conditions": "24 h, increasing doses 0.01 to 10 μM"}, "[20]": {"conditions": "24 h, increasing doses 0.1 to 10 μM"}}, "note": "Entries after “also recorded” stand apart in the source; their conditions may differ."}
{"smiles": "Cc1cc(C(=O)CN2CCCC2)c(C)n1-c1ccc(F)cc1", "note": "[b-AP15]", "values": [{"measurement": "cell proliferation of 1205Lu cells (MTS)", "setting": "[1]; [19]", "result": "impaired cell proliferation in a dose-dependent manner"}, {"measurement": "IC50", "setting": "[1]; Homo sapiens, 1205Iu, MET, BRAFV600E/PTEN*, resistance none, 48 h MTS, read-out: b-AP15 IC50", "result": 400, "unit": "nM"}, {"measurement": "cell proliferation of BRAFi-resistant m229R cells (MTS)", "setting": "[2]; [20]", "result": "potently decreased cell proliferation"}, {"measurement": "IC50", "setting": "[2]; Homo sapiens, m229R, MET, BRAFV600E/PTEN*/RTK*, resistance vemurafenib, 48 h MTS, read-out: b-AP15 IC50", "result": 1100, "unit": "nM"}, {"measurement": "cell proliferation of BRAFi-resistant 4511uR cells (MTS)", "setting": "[3]; [20]", "result": "potently decreased cell proliferation"}, {"measurement": "IC50", "setting": "[3]; Homo sapiens, 451IuR, MET, BRAFV600E/p53*/?, resistance dabrafenib, 48 h MTS, read-out: b-AP15 IC50", "result": 1300, "unit": "nM"}, {"measurement": "cell proliferation of 501me1 cells (MTS)", "setting": "[4]; [19]", "result": "impaired cell proliferation in a dose-dependent manner"}, {"measurement": "IC50", "setting": "[4]; Homo sapiens, 501Mel, MET, BRAFV600E, resistance none, 48 h MTS, read-out: b-AP15 IC50", "result": 500, "unit": "nM"}, {"measurement": "cell proliferation of A375 cells (MTS)", "setting": "[5]; 24 h, increasing doses up to 10 μM", "result": "drastically decreased cell proliferation; also recorded: impaired cell proliferation in a dose-dependent manner"}, {"measurement": "IC50", "setting": "[5]; Homo sapiens, A-375, A375, MET, BRAFV600E/CDKN2A*, resistance none, 48 h MTS, read-out: b-AP15 IC50", "result": 600, "unit": "nM"}, {"measurement": "tolerability / weight loss", "setting": "[6]", "result": "no weight loss was observed"}, {"measurement": "time to rounding of melanoma cells", "setting": "[7]", "result": "≤ 12", "unit": "h"}, {"measurement": "IC50", "setting": "[8]", "result": 3400, "unit": "nM"}, {"measurement": "effect on cell proliferation, real-time imaging", "setting": "[9]", "result": "rapid"}, {"measurement": "USP14 activity in 12051u, 501Mel, SKMe128 and 4511u cells", "setting": "[10]; 2 μM", "result": "efficiently blocked the activity of USP14"}, {"measurement": "USP14 activity (USP14-Ub-HA) in A375 cells", "setting": "[10]; A375 melanoma cells", "result": "efficiently blocked the activity of USP14 in a dose-dependent manner"}, {"measurement": "melanoma colony formation", "setting": "[11]", "result": "suppressed melanoma colony formation"}, {"measurement": "sub-G1 cell population with reduced DNA content", "setting": "[12]", "result": 11, "unit": "%"}, {"measurement": "sub-G1 cell population with reduced DNA content", "setting": "[13]", "result": 19, "unit": "%"}, {"measurement": "K48-linked poly-ubiquitinated proteins", "setting": "[14]", "result": "induced a rapid accumulation"}, {"measurement": "levels of p53 and of the cell cycle inhibitor p21", "setting": "[15]", "result": "increased"}, {"measurement": "levels of phosphorylated Rb proteins", "setting": "[15]", "result": "reducing"}, {"measurement": "ability to form colonies, compound treatment", "setting": "[16]", "result": "no longer capable of forming colonies"}, {"measurement": "ROS production", "setting": "[17]", "result": "triggered a rapid burst of ROS"}, {"measurement": "viability", "setting": "[18]", "result": 52, "unit": "%"}]}
